Source: patent US11161842B2, “Bifunctional molecules for degradation of EGFR and methods of use” (Dana-Farber Cancer Institute, Inc., priority 2016, dated 2021)

What follows are compounds tested against T1, T790M/L858R transformed Ba/F3 cells (Homo sapiens, UniProt P00533, T790M/L858R, cells depend on it) (assay: Ba/F3 cell proliferation (MTS) assay, T790M/L858R). Conditions: compound at 1 μM, inhibition of growth as percent of control.
T1 construct: The constructs were shuttled into the retroviral vector JP 1540 using the BD Creator™ System (BD Biosciences)
Assay type: cell-based, murine
Source text: The EGFR mutant L858R, Del E746_A750, L858R/T790M, DelE746_A750/T790M, L858R/T790M/C797S and Del/T790M/C797S Ba/F3 cells have been previously described (Zhou, W., Ercan, D., Chen, L., Yun, C. H., Li, D., Capelletti, M., Cortot, A. B., Chirieac, L., Iacob, R. E., Padera, R., et al. “Novel mutant-selective EGFR kinase inhibitors against EGFR T790M,” Nature 462, (2009), 1070-1074). All cell lines were maintained in RPMI 1640 (Cellgro; Mediatech Inc., Herndon, Calif.) supplemented with 10% FBS 100 units/mL penicillin, 100 units/mL streptomycin, and 2 mM glutamine. L858R cells were maintained in ACL-4 media (Invitrogen, Carlsbad, Calif.) supplemented with 5% FBS, 100 units/mL penicillin, 100 units/mL streptomycin, and 2 mM glutamine. The EGFR I941R mutation was introduced via site directed mutagenesis using the Quick Change Site-Directed Mutagenesis kit (Stratagene; La Jolla, Calif.) according to the manufacturer's instructions. All constructs were confirmed by DNA sequencing. The constructs were shuttled into the retroviral vector JP 1540 using the BD Creator™ System (BD Biosciences). Ba/F3 cells were infected with retrovirus and according to standard protocols, as described previously (Zhou et al, Nature 2009). Stable clones were obtained by selection in puromycin (2 μg/ml).
Growth and inhibition of growth was assessed by MTS assay and was performed according to previously established methods (Zhou et al., Nature 2009). The MTS assay is a colorimetric method for determining the number of viable cells that is based on the bioreduction of MTS by cells to a formazan product that is soluble in cell culture medium and can be detected spectrophotometrically. Ba/F3 cells of different EGFR genotypes were exposed to treatment for 72 hours and the number of cells used per experiment determined empirically and has been previously established (Zhou et al., Nature 2009). All experimental points were set up in six wells and all experiments were repeated at least three times. […] The curves were fitted using a non-linear regression model with a sigmoidal dose response.
Compounds of Table 1 were tested at a concentration of 1 μM against T790M/L858R transformed Ba/F3 cells. The assay, as described in Example 42, measured inhibition of growth as a percent of the inhibitory activity of the control. In Table 1, A is 0<% control <25, B is 25<% control <50, C is 50<% control <75, and D is 75<% control.
Compounds of Table 2 were tested in a T790M/L858R transformed Ba/F3 cell line as described in Example 42 and the EC50 values were calculated. In Table 2, A is EC50<500 nM, B is 500 nM<EC50<1000 nM, C is 1000 nM<EC50<5000 nM, and D is 5000 nM<EC50.

T1 sequence (P00533 whole entry T790M/L858R): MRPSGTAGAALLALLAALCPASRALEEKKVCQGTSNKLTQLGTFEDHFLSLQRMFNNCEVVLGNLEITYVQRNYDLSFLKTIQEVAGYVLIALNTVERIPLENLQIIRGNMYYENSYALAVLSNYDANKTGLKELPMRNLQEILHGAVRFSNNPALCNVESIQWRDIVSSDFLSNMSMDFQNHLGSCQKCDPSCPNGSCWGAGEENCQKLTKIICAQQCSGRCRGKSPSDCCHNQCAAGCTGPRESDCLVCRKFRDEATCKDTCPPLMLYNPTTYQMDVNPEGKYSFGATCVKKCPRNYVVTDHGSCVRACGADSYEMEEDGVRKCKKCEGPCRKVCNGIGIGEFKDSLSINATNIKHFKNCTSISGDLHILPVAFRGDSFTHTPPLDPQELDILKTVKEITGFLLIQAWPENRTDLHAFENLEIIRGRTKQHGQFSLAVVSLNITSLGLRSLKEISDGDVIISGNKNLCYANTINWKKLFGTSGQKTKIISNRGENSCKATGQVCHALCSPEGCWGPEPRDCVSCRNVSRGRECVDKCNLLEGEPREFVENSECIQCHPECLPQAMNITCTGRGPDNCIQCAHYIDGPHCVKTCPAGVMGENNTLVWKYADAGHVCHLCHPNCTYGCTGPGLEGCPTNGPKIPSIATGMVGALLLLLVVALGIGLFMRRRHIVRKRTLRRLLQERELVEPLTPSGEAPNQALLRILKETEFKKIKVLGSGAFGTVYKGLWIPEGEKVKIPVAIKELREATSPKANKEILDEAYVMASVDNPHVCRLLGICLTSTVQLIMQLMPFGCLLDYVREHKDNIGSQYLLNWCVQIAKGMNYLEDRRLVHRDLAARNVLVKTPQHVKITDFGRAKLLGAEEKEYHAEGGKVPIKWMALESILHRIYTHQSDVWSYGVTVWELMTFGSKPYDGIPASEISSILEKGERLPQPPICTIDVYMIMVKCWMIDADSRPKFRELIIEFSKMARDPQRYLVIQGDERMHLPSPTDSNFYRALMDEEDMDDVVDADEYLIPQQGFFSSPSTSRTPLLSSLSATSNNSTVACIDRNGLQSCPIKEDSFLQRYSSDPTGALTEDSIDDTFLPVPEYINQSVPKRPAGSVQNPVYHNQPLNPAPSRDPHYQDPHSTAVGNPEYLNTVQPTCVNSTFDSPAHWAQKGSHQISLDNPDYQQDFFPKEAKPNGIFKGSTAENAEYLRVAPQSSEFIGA

Row | SMILES | % control
1 | O=C1CCC(N2C(=O)c3cccc(NCCCCCCCCN4CCN(c5ccc(-c6ccc7c(c6)C(=O)N(C(C(=O)Nc6nccs6)c6ccccc6)C7)cc5)CC4)c3C2=O)C(=O)N1 (stereo not shown) [Compound I-19, 2-(6-(4-(4-(8-((2-(2,6-Dioxopiperidin-3-yl)-1,3-dioxoisoindolin-4-yl)amino)octyl)piperazin-1-yl)phenyl)-1-oxoisoindolin-2-yl)-2-phenyl-N-(thiazol-2-yl)acetamide] | D (D is 75<% control)
2 | O=C1CCC(N2C(=O)c3cccc(NCCOCCOCCN4CCN(c5ccc(-c6ccc7c(c6)C(=O)N(C(C(=O)Nc6nccs6)c6ccccc6)C7)cc5)CC4)c3C2=O)C(=O)N1 (stereo not shown) [Compound I-21, 2-(6-(4-(4-(2-(2-(2-((2-(2,6-Dioxopiperidin-3-yl)-1,3-dioxoisoindolin-4-yl)amino)ethoxy)ethoxy)ethyl)piperazin-1-yl)phenyl)-1-oxoisoindolin-2-yl)-2-phenyl-N-(thiazol-2-yl)acetamide] | C (C is 50<% control <75)
3 | O=C1CCC(N2C(=O)c3cccc(NCCCCCCN4CCN(c5ccc(-c6ccc7c(c6)C(=O)N(C(C(=O)Nc6nccs6)c6ccccc6)C7)cc5)CC4)c3C2=O)C(=O)N1 (stereo not shown) [Compound I-17, 2-(6-(4-(4-(6-((2-(2,6-Dioxopiperidin-3-yl)-1,3-dioxoisoindolin-4-yl)amino)hexyl)piperazin-1-yl)phenyl)-oxoisoindolin-2-yl)2-phenyl-N-(thiazol-2-yl)acetamide] | C (C is 50<% control <75)
4 | O=C1CCC(N2C(=O)c3cccc(NCCOCCOCCC(=O)N4CCN(c5ccc(-c6ccc7c(c6)C(=O)N(C(C(=O)Nc6nccs6)c6ccccc6)C7)cc5)CC4)c3C2=O)C(=O)N1 (stereo not shown) [Compound I-7, 2-(6-(4-(4-(3-(2-(2-((2-(2,6-Dioxopiperidin-3-yl)-1,3-dioxoisoindolin-4-yl)amino)ethoxy)ethoxy)propanoyl)piperazin-1-yl)phenyl)-1-oxoisoindolin-2-yl)-2-phenyl-N-(thiazol-2-yl)acetamide] | B (B is 25<% control <50)

The next lines start with the values.

Row | % control | SMILES
5 | B (B is 25<% control <50) | O=C(Nc1nccs1)C(c1ccccc1)N1Cc2ccc(-c3ccc(N4CCNCC4)cc3)cc2C1=O (stereo not shown) [TL Compd 1, 2-(1-oxo-6-(4-(piperazin-1-yl)phenyl)isoindolin-2-yl)-2-phenyl-N-(thiazol-2-yl)acetamide]
6 | D (D is 75<% control) | Cc1ncsc1-c1ccc(CNC(=O)[C@@H]2C[C@@H](O)CN2C(=O)[C@@H](NC(=O)CCOCCOCCOCCC(=O)N2CCN(c3ccc(-c4ccc5c(c4)C(=O)N(C(C(=O)Nc4nccs4)c4cc(F)ccc4O)C5)cc3)CC2)C(C)(C)C)cc1 (stereo partly drawn) [Compound I-26, (2S,4R)-1-((2S)-2-(tert-Butyl)-16-(4-(4-(2-(1-(5-fluoro-2-hydroxyphenyl)-2-oxo-2-(thiazol-2-ylamino)ethyl)-3-oxoisoindolin-5-yl)phenyl)piperazin-1-yl)-4,16-dioxo-7,10,13-trioxa-3-azahexadecanoyl)-4-hydroxy-N-(4-(4-methylthiazol-5-yl)benzyl)pyrrolidine-2-carboxamide]
7 | D (D is 75<% control) | CC1(N2C(=O)c3cccc(NCCOCCOCCOCCC(=O)N4CCN(c5ccc(-c6ccc7c(c6)C(=O)N(C(C(=O)Nc6nccs6)c6ccccc6)C7)cc5)CC4)c3C2=O)CCC(=O)NC1=O (stereo not shown) [Compound I-27, 2-(6-(4-(4-(3-(2-(2-(2-((2-(3-Methyl-2,6-dioxopiperidin-3-yl)-1,3-dioxoisoindolin-4-yl)amino)ethoxy)ethoxy)ethoxy)propanoyl)piperazin-1-yl)phenyl)-1-oxoisoindolin-2-yl)-2-phenyl-N-(thiazol-2-yl)acetamide]
